US20250339396A1 (COSMAS THERAPEUTICS DEVELOPMENT INC., priority 2021, published 2025)

Tests used:
[1] = Stability of Prodrug D in solvents by HPLC; format: physicochemical
Method: For this test, we used HPLC with different solvent systems. […] Therefore, after initial assessment, this method was used for the remaining tests. Prodrug D or UCM924 (comparator) were dissolved in the different solvents listed in the table below and, after the waiting period indicated, HPLC tests were carried out according to the above. The results are shown in the table below, in which the percentages represent the quantity of prodrug D or UCM924 detected in the samples.

[2] = Solubility of Prodrug D; format: physicochemical
Excerpt: The solubility and stability of Prodrug D as synthesized in Example 2 were studied.

[3] = tested on: mice (C57/BL); test: Elevated Plus Maze Test (EPMT); format: in vivo, mouse; parameters: key to closed arm time, difference between medians: Actual / closed arm time, difference between medians: Hodges-Lehmann: time in closed arms, in seconds (s); total distance, difference between medians: Actual / total distance, difference between medians: Hodges-Lehmann: unit not given here; details: 150 mg/kg oral gavage
Method: Prodrug D 150 mg/kg was dissolved in tap water per oral gavage. The solution was prepared <30 seconds before administration (100 μL administration volume).
Behavioral tests performed 2.5-3 hours after drug administration. 8 mice (C57/BL) per group were used received vehicle or Prodrug D.
The EPMT was used to assess anxiety-like reactivity as induced suppression of exploratory behavior. The maze was made of white Plexiglass and consisted of two open arms (16×5 cm) opposite each other and two walled arms (16×5×12 cm) opposite each other. […] The mice were each placed on the central platform facing one of the open arms. EPMT behavior was recorded for 5 min under bright white light (100 W). Behavioral endpoints that were analyzed included time spent in the open vs closed arms, frequency of open arm vs closed arm entries, time spent (s) on the central platform. Anxiolytic agents are known to increase open arm visits and time in the open arm. Anxiogenics increase closed arm visits.
The percentage of the time spent in the open arms was calculated employing the formula […] where OA represents the time (s) spent in open arms and CA is the time (s) spent in the closed arms. Behavioral experiments were recorded and analyzed using an automated tracking system (Video track, View Point Life Science, Montreal, Canada) equipped with infrared lighting-sensitive CCD cameras (Bambico F R et al., 2010).

[4] = tested on: neuropathic (SNI) rats; test: Mechanical allodynia (von Frey, 50% paw withdrawal threshold) after spared nerve injury (SNI); format: in vivo, rat; details: 50 mg/kg per os
Method: Experiments were performed in male Sprague-Dawley rats (body weight: 250-300 g; Charles River Laboratories, St. Constant, QC, Canada) and adult male C57BL mice (body weight: 25-30 g; inbred). All animals were housed in small groups at a constant temperature of 22° C., with food and water provided ad libitum, and maintained under a 12 h light/dark cycle (lights on at 7:00 AM; lights off at 7:00 PM). All experimental procedures were conducted in accordance with the guidelines of the Canadian Council on Animal Care, and the protocols were approved by the Animal Care Committee at McGill University.
The different prodrug compounds as synthesized in Example 2 were tested and compared with Gabapentin (150 mg/kg, purchased from Sigma Aldrich, US). Prodrug was dissolved in saline, water, or a vehicle composed of 40% PEG400 and 60% water. Gabapentin was dissolved in a vehicle composed of 40% PEG400 and 60% water. All drugs (doses see the procedure descriptions below) were administrated per os (gavage) through a curved feeding tube (20 G for rats and 22 G for mice) at the beginning of the experiment unless otherwise specified. The dose of prodrug was chosen based on its pharmacokinetic properties, and the doses of Gabapentin were chosen from literature (Lopez-Canul, Palazzo et al. 2015).
Spared nerve injury was performed according to the method of (Decosterd I and Woolf CJ, 2000), see also Lopez-Canul et al., 2015. Rats and mice were anesthetized with isoflurane. The sciatic nerve was exposed at mid-thigh level distal to the trifurcation and freed of connective tissue; the three peripheral branches (sural, common peroneal, and tibial nerves) of the sciatic nerve were exposed without stretching nerve structures. Both tibial and common peroneal nerves were ligated and transected together. Tactile allodynia was absent in healthy (pre-surgery) and sham rats, and the mechanical withdrawal threshold in rats before SNI (pre-surgery) or sham was very close to the cutoff of dynamic plantar aesthesiometer (30 g) (Ugo Basile, Varese, Italy).
On day 14 after surgery, individual rats were placed in a test chamber (clear plastic wire mesh-bottomed cage) and allowed to acclimatize for 30 to 40 minutes. Von Frey filaments (Stoelting, Wood Dale, IL) were used to measure the 50% paw withdrawal threshold using the up-and-down method reported by {Chaplan, 1994 #399}. […] Lifting of the paw indicated a positive response and prompted the use of the […], whereas absence of paw withdrawal after 5 seconds indicated a negative response and prompted the next filament of increasing weight. This paradigm continued for 4 more measurements after the initial change of the behavioral response or until 5 consecutive negative or 4 consecutive positive responses. Based on observations on normal, unoperated, and sham-operated rats, the cutoff value of 15 g was selected as the upper limit for testing because stiffer hairs tended to raise the entire limb rather than to buckle, substantially changing the nature of the stimulus. The resulting scores were used to calculate the 50% response threshold using the formula proposed by Dixon. Allodynia was considered to be present when paw withdrawal thresholds were <4 g, and drugs raising this threshold were considered antiallodynic {Lopez-Canul, 2015}. Accordingly, all nerve ligated rats were verified to be allodynic, responding to a stimulus of <4 g. Rats without mechanical allodynia were excluded. After the determination of the basal response, allodynia was assessed at baseline, 0.5, 1, 1.5, 2, 2.5, 3, 4, 5, 6, 7, and 8 hours post-administration for each treatment described below. Groups of 5 to 6 rats per treatment were used, with each animal being used for 1 treatment only. […]

[5] = 2.5-3 hours after administration, 5 min EPMT

CC(=O)N(CCN(c1ccc(F)cc1)c1cccc(Br)c1)C(=O)OCOC(=O)CN.Cl [Prodrug D, ((acetyl(2-((3-bromophenyl)(4-fluorophenyl)amino)ethyl)carbamoyl)oxy)methyl 2-aminoacetate hydrochloride]
quantity detected in the sample by HPLC ([1]; HPLC Method 1, H2O, 0 h, pH ~7.0): 90.15% | quantity detected in the sample by HPLC ([1]; HPLC Method 2, 1N HCl, overnight at rt, pH ~0): 85.21% | quantity detected in the sample by HPLC ([1]; HPLC Method 2, 40% PEG400:60% H2O, overnight at rt, pH ~7.0): 58.17% | quantity detected in the sample by HPLC ([1]; HPLC Method 2, H2O, 0 h, pH ~7.0): 93.92% | quantity detected in the sample by HPLC ([1]; HPLC Method 2, H2O, overnight at rt, pH ~7.0): 18.28% | quantity detected in the sample by HPLC ([1]; HPLC Method 2, Saturated NaHCO3aq, 2 h at rt, pH ~8.5): 27.21% | stability at different PH ([1]; rank order): acidic>neutral>basic | solubility ([2]; aqueous with cosolvent or surfactant or cyclodextrin, in PEG400:water 40%:60% mixture): > 125 mg/mL | solubility ([2]; in water): > 150 mg/mL | overall effect in the EPMT [3]: antianxiety effects | closed arm time, median [3, 5]: 222.8, n = 8 | entries to open, median [3, 5]: 11.00, n = 8 | open arm time, median [3, 5]: 56.30, n = 8 | total distance, median [3, 5]: 1521, n = 8 | closed arm time, difference between medians: Actual ([3]; VEH minus Prodrug D (column A)): 25.75 | entries to open, difference between medians: Actual ([3]; VEH minus Prodrug D (column A)): −2 | open arm time, difference between medians: Actual ([3]; VEH minus Prodrug D (column A)): −30.85 | total distance, difference between medians: Actual ([3]; VEH minus Prodrug D (column A)): −2.35 | closed arm time, difference between medians: Hodges-Lehmann ([3]; VEH vs. Prodrug D): 29.45 | entries to open, difference between medians: Hodges-Lehmann ([3]; VEH vs. Prodrug D): −2.5 | open arm time, difference between medians: Hodges-Lehmann ([3]; VEH vs. Prodrug D): −25.9 | total distance, difference between medians: Hodges-Lehmann ([3]; VEH vs. Prodrug D): −116.6 | AUC of withdrawal threshold vs. UCM924, t-test p [4]: 0.015 | Area Under the Curve (AUC) of withdrawal threshold vs. vehicle, Bonferroni p (FIG. 1B) [4]: < 0.0001 | withdrawal threshold over time vs. vehicle (two-way ANOVA, FIG. 1A) ([4]; 0.5-8 h): significantly increased the withdrawal threshold | withdrawal threshold vs. vehicle, Bonferroni post-hoc p ([4]; after 3, 4, 5 and 6 hours): < 0.0001 | withdrawal threshold vs. vehicle, Bonferroni post-hoc p ([4]; after 1 hour): 0.05 | withdrawal threshold vs. precursor UCM924, Bonferroni post-hoc p ([4]; hour 5): < 0.001 | withdrawal threshold vs. precursor UCM924, Bonferroni post-hoc p ([4]; hour 6): < 0.0001
